Test system: contralateral nasolabial folds of subjects sensitive to glycolic acid
Assay: in-vivo sting test (sting/burn propensity and forced choice)
Design: species or system human
Settings: additive in Base Formula A + 8% glycolic acid, pH 3.8; result in words
Description: Procedure for in-vivo sting test: This was a randomized, double blind study where each subject evaluated one test formulation and a control formulation or two test formulations on contralateral nasolabial folds. […] A maximum of 20 qualified subjects (minimum of 15) were utilized in each subsequent test. One paired comparison was made on each testing day, with a minimum of 3 days between sting testing throughout the study. Subjects underwent a 15 second Ivory soap wash regime immediately prior to product testing for enhancing sting response. […] Study personnel then applied one test formulation and one control or test formulation simultaneously to the appropriate left/right test site, and gently but thoroughly rubbed in. Subjects compared the stinging potential of the two formulations, over a 7.5 minute period using a self-assessment questionnaire.
Sting/Burn Propensity: The degree of stinging/burning felt on the left and right inner cheek and crease of the nose was evaluated using the following scale at the times indicated in Tables below:
0-no stinging/burning; 1-very slight stinging/burning; 2-slight stinging/burning; 3- moderate stinging/burning; 4-moderately high stinging/burning; 5-high stinging/burning; 6-extreme stinging/burning. […]
Statistical significance was determined at p≦0.1.

With C[C@]12CCC(=O)C=C1CC[C@@H]1[C@@H]2[C@@H](O)C[C@@]2(C)[C@H]1CC[C@]2(O)C(=O)CO [hydrocortisone] the “effect of additive on sting of Base Formula A containing 8% glycolic acid” value was “neither hydrocortisone nor arabinogalactan reduced the sting”.

From patent US6610741B1, “Skin cosmetic compositions containing a weak carboxylic acid and random copolymers of ethylene oxides and propylene oxides” (Unilever Home & Personal Care USA division of Conopco, Inc., priority 1999, dated 2003)
